With `Cc1ccccc1C(C)C`, the logP was 4.38.
The same measure for `CCCCCCCCCc1ccccc1`: 7.11; for `CCCc1ccc(C)cc1`: 4.6; for `CCc1cccc(C)c1C`: 4.34.
The same measure for `CCc1cccc(CC)c1`: 4.57; for `CCc1cc(C)cc(C)c1`: 4.55; for `CCc1ccc(C)c(C)c1`: 4.5.
The same measure for `CCCc1ccccc1C`: 4.5.
As to `Cc1cccc(C(C)C)c1`, the logP came out at 4.5.
The figure for `CCCc1cccc(C)c1` is 4.67; for `CCc1c(C)cccc1C` it is 4.28; for `CCc1ccc(C)cc1C` it is 4.47.
The same measure for `CCc1cc(C)ccc1C`: 4.43; for `CCc1cccc(C)c1`: 3.98.
The figure for `CCC(C)c1ccccc1` (stereo unspecified) is 4.57.
`CCc1ccc(CC)cc1` returned a lipophilicity (logP) of 4.58.

As a reminder, the logP is the decadic logarithm of the partition coefficient of the neutral form, usually between octanol and water. A high value points to a more lipophilic compound.
